The test system of series [1] is Vero. The series can be described thus: Growth inhibition of African green monkey Vero cells up to 250 ug/ml. The class given is cell-based. The conditions noted are these: chlorocebus sabaeus.
For series [2], the system named is Vero. Put plainly: Cytotoxic activity against African green monkey Vero cells up to 250 ug/ml. The conditions noted are these: chlorocebus sabaeus. The class given is cell-based.
The next series deals with T1, Thymidylate kinase (Mycobacterium tuberculosis, UniProt P9WKE1).
T1 sequence (P9WKE1 whole entry): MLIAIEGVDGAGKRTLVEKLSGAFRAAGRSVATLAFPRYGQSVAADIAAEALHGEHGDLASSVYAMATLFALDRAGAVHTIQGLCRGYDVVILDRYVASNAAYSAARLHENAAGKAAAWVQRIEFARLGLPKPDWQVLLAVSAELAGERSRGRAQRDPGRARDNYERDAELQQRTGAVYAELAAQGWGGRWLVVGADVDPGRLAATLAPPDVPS
Put plainly: Inhibition of Mycobacterium tuberculosis TMPK using dTMP substrate and NADH by pyruvate kinase/lactate dehydrogenase coupling system based spectrophotometric assay.

2 molecules from ChEMBL document CHEMBL3714722, “Aryl, Pyrimidyl Compounds, Pharmaceutical Compositions Comprising them, Their Use as Antimicrobial Agents” (2008) can be followed below.

Take `Cc1cn(Cc2ccc(CCCCCC(=O)O)cc2)c(=O)[nH]c1=O`: the Activity result in the series on Vero [1] and with Vero [2] was “Non-toxic” in each case.

In the case of `COC(=O)CCCC#Cc1ccc(Cn2cc(C)c(=O)[nH]c2=O)cc1`, the Ki entry on Thymidylate kinase is recorded as “Not Active”.
